In EP0361510B1, “Antitumor substance, process for preparing the same, and anticancer agent containing the same” (MEIJI SEIKA KAISHA LTD., priority 1988, dated 1990):
In brackets after ≈: the same amount, converted by molar mass. Where two headings read alike, the source gives them in different places.

Legend:
[1] = mouse, i.v.; cited from earlier work
[2] = test system: Mouse leukemia P-388 cells; test: Cytotoxicity on P-388 cells (MTT assay); format: cell-based; settings: for IC₅₀: 72 hours incubation; for IC50: Mus musculus, P388, 72 hours incubation, read-out: IC₅₀
Protocol: Cytotoxicity of the compounds according to the present invention was determined by MTT assay in the following manner.
Mouse leukemia P-388 cells were suspended in RPMI medium supplemented with 10% fetal calf serum and this suspension was used to inoculate the 96-well microplate to give a cell concentration of 2 × 10³ cells/well. The compound shown in Table 2 was dissloved in RPMI medium and add to each well for the test group, while no compound was added to wells of the control group. Incubation was carried out at 37°C for 72 hours at 5% CO₂. Then, MTT (3-(4,5-dimethylthiazol-2-yl)-2,5-diphenyl tetrazolium bromide) was added to each well to cause formation of formazan. The resulting formazan was dissolved by adding sodium dodecyl sulfate. Absorbance at 577-630 nm of each well was measured by the ELISA analyzer and 50% ihibitory concentration (IC₅₀) of each compound was calculated from the absorbance ratio of the test group to the control group.

[3] = test system: Mouse leukemia P-388 cells; test: Antitumor activity in mice transplanted intraperitoneally with P-388 cells; format: in vivo, BDF₁ mice; settings: intraperitoneal, 24 hours after transplantation, hydrochloride
Protocol: Antitumor activity of hydrochlorides of the compounds of the present invention was determined in the following manner.
Mouse leukemia P-388 cells maintained in the abdominal cavity of BDF₁ mouse were taken out and were suspended in physiological saline to give a cell concnetration of 1 × 10⁶ cells/0.2 mℓ. The cell suspension (0.2 mℓ) was transplanted to the abdominal cavity of 5-week-old male BDF₁ mice. The compounds of the present invention as shown in Table 3 was dissolved in 0.2 mℓ of physiological saline and was intraperitoneally administered to the mouse 24 hours after the transplantation of P-388 cells. No compound was administered to the mice of the control group. The T/C% value was calculated in accordance with the following formula. [formula]

[4] = Acute toxicity (LD50) in mice; settings: mouse, in vivo, hydrochloride, read-out: LD₅₀
Protocol: The hydrochlorides of the compounds of the present invention as shown in Table 4 were intraperitoneally or intravenously administered to mice and acute toxicity (LD₅₀) of each compound was measured.

Cc1cc2c(c3oc(C4(C)OC4C4OC4C)cc(=O)c13)C(=O)c1c(ccc(C3CC(C)(N(C)C)C(O)C(C)O3)c1O)C2=O (centres unmarked) [SF2587]
LD₅₀ [1]: about 5 mg/kg

3′,11-O-divaleryl SF2587 [Compound 9]
IC₅₀ [2]: 34.3 ng/mL
Anti-P388 Activity (T/C%) ([3]; Dose 2.5 mg/kg): 96%
Anti-P388 Activity (T/C%) ([3]; Dose 5 mg/kg): 117%
Anti-P388 Activity (T/C%) ([3]; Dose 10 mg/kg): 147%
Anti-P388 Activity (T/C%) ([3]; Dose 20 mg/kg): 189%
Anti-P388 Activity (T/C%) ([3]; Dose 40 mg/kg): 227%

CC(=O)Oc1c(C2CC(C)(N(C)C)C(OC(C)=O)C(C)O2)ccc2c1C(=O)c1c(cc(C)c3c(=O)cc(C4(C)OC4C4OC4C)oc13)C2=O (centres unmarked) [Compound 2, 3′, 11-O-acetyl-SF2587]
IC50 [2]: 0.0231 µg/mL (≈ 0.0343 µM)
Anti-P388 Activity (T/C%) ([3]; Dose 3.5 mg/kg): 163%
Anti-P388 Activity (T/C%) ([3]; Dose 7 mg/kg): >200%
Anti-P388 Activity (T/C%) ([3]; Dose 14 mg/kg): 70%
LD50 ([4]; ip, injection route i.p.): 16 mg/kg
LD50 ([4]; iv, injection route i.v.): 23.5 mg/kg

CCC(=O)Oc1c(C2CC(C)(N(C)C)C(OC(=O)CC)C(C)O2)ccc2c1C(=O)c1c(cc(C)c3c(=O)cc(C4(C)OC4C4OC4C)oc13)C2=O (centres unmarked) [Compound 4, 3′,11-O-dipropionyl SF2587]
IC50 [2]: 0.0181 µg/mL (≈ 0.0258 µM)
Anti-P388 Activity (T/C%) ([3]; Dose 1.56 mg/kg): 130%
Anti-P388 Activity (T/C%) ([3]; Dose 3.13 mg/kg): 133%
Anti-P388 Activity (T/C%) ([3]; Dose 6.25 mg/kg): 217%
Anti-P388 Activity (T/C%) ([3]; Dose 12.5 mg/kg): >449%
Anti-P388 Activity (T/C%) ([3]; Dose 25 mg/kg): 71%
LD50 ([4]; ip, injection route i.p.): 40 mg/kg

CCCC(=O)Oc1c(C2CC(C)(N(C)C)C(OC(=O)CCC)C(C)O2)ccc2c1C(=O)c1c(cc(C)c3c(=O)cc(C4(C)OC4C4OC4C)oc13)C2=O (centres unmarked) [Compound 6, 3′-11-O-dibutyryl SF2587]
IC50 [2]: 0.0231 µg/mL (≈ 0.0317 µM)
Anti-P388 Activity (T/C%) ([3]; Dose 1.25 mg/kg): 96%
Anti-P388 Activity (T/C%) ([3]; Dose 2.5 mg/kg): 113%
Anti-P388 Activity (T/C%) ([3]; Dose 5 mg/kg): 144%
Anti-P388 Activity (T/C%) ([3]; Dose 10 mg/kg): 186%
Anti-P388 Activity (T/C%) ([3]; Dose 20 mg/kg): >485%
LD50 ([4]; ip, injection route i.p.): 120 mg/kg

3′,11-O-diisobutyryl SF2587 [Compound 8]
IC₅₀ [2]: 23.1 ng/mL
Anti-P388 Activity (T/C%) ([3]; Dose 2.5 mg/kg): 113%
Anti-P388 Activity (T/C%) ([3]; Dose 5 mg/kg): 144%
Anti-P388 Activity (T/C%) ([3]; Dose 10 mg/kg): 175%
Anti-P388 Activity (T/C%) ([3]; Dose 20 mg/kg): >488%
Anti-P388 Activity (T/C%) ([3]; Dose 40 mg/kg): 69%

11-O-Butyryl SF2587 [Compound 10]
IC₅₀ [2]: 16.0 ng/mL

3′-O-Butyryl SF2587 [Compound 5]
IC₅₀ [2]: 17.8 ng/mL
Anti-P388 Activity (T/C%) ([3]; Dose 1.25 mg/kg): 158%
Anti-P388 Activity (T/C%) ([3]; Dose 2.5 mg/kg): 186%
Anti-P388 Activity (T/C%) ([3]; Dose 5 mg/kg): 72%

3′-O-acetyl SF2587 Substance [Compound 1]
IC₅₀ [2]: 19.4 ng/mL
Anti-P388 Activity (T/C%) ([3]; Dose 0.25 mg/kg): 124%
Anti-P388 Activity (T/C%) ([3]; Dose 0.5 mg/kg): 134%
Anti-P388 Activity (T/C%) ([3]; Dose 1.0 mg/kg): 144%

3′-O-propionyl SF2587 [Compound 3]
IC₅₀ [2]: 19.9 ng/mL

3′-O-isobutyryl SF2587 [Compound 7]
IC₅₀ [2]: 55.2 ng/mL
